# In ChEMBL document CHEMBL1201862, “PubChem BioAssay data set” (2004):
#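 Five compound concentrations were applied to cells in 96-well plates for 48 hours; endpoints were derived by simple linear interpolation of the resulting dose-response curve. At the GI50, growth is halved.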 Calls of active or inactive are those of the source. Rule as the data show it: active = GI50 up to about 1.1 µM and inactive = higher.
# Columns and labels:
# Assay in all cases: NCI anticancer screen, dose series, 48 h
# [1] = test system: 786-0
# [2] = test system: A498
# [3] = test system: A549
# [4] = test system: ACHN
# [5] = test system: BT-549
# [6] = test system: CAKI-1
# [7] = test system: CCRF-CEM
# [8] = test system: COLO 205
# [9] = test system: DU-145
# [10] = test system: EKVX
# [11] = test system: HCC 2998
# [12] = test system: HCT-116
# [13] = test system: HCT-15
# [14] = test system: HL-60
# [15] = test system: HOP-62
# [16] = test system: HOP-92
# [17] = test system: HT-29
# [18] = test system: Hs-578T
# [19] = test system: IGROV-1
# [20] = test system: K562
# [21] = test system: KM12
# [22] = test system: LOX IMVI
# [23] = test system: MCF7
# [24] = test system: MDA-MB-231
# [25] = test system: MDA-MB-435
# [26] = test system: MDA-N
# [27] = test system: MOLT-4
# [28] = test system: Malme-3M
# [29] = test system: NCI-H23
# [30] = test system: NCI-H460
# [31] = test system: NCI-H522
# [32] = test system: NCI/ADR-RES
# [33] = test system: OVCAR-3
# [34] = test system: OVCAR-4
# [35] = test system: OVCAR-5
# [36] = test system: OVCAR-8
# [37] = test system: PC-3
# [38] = test system: RPMI-8226
# [39] = test system: SF-268
# [40] = test system: SF-295
# [41] = test system: SF-539
# [42] = test system: SK-MEL-28
# [43] = test system: SK-MEL-2
# [44] = test system: SK-MEL-5
# [45] = test system: SK-OV-3
# [46] = test system: SN12C
# [47] = test system: SNB-19
# [48] = test system: SR
# [49] = test system: SW-620
# [50] = test system: T47D
# [51] = test system: TK-10
# [52] = test system: U-251
# [53] = test system: UACC-257
# [54] = test system: UACC-62
# [55] = test system: UO-31
# [56] = test system: M14
# [57] = test system: NCI-H226
# [58] = test system: RXF 393
smiles,measurement,setting,value
O=C1CSC(c2cccc(Cl)c2)N1c1ccc(-n2c(-c3ccccc3)nc3ccccc3c2=O)cc1 (stereo not given),GI50,[1],> 100 µM (inactive)
same,GI50,[2],94.8 µM (inactive)
same,GI50,[3],> 100 µM (inactive)
same,GI50,[4],79.3 µM (inactive)
same,GI50,[5],9.98 µM (inactive)
same,GI50,[6],45.3 µM (inactive)
same,GI50,[7],40 µM (inactive)
same,GI50,[8],> 100 µM (inactive)
same,GI50,[9],> 100 µM (inactive)
same,GI50,[10],> 100 µM (inactive)
same,GI50,[11],43.7 µM (inactive)
same,GI50,[12],53 µM (inactive)
same,GI50,[13],15.8 µM
same,GI50,[14],> 100 µM (inactive)
same,GI50,[15],> 100 µM (inactive)
same,GI50,[16],2.69 µM (inactive)
same,GI50,[17],97.7 µM (inactive)
same,GI50,[18],39.3 µM (inactive)
same,GI50,[19],59.2 µM (inactive)
same,GI50,[20],51.6 µM (inactive)
same,GI50,[21],21.3 µM (inactive)
same,GI50,[22],46.2 µM (inactive)
same,GI50,[23],30.3 µM (inactive)
same,GI50,[24],21.1 µM (inactive)
same,GI50,[25],45.8 µM (inactive)
same,GI50,[26],> 100 µM (inactive)
same,GI50,[27],5.47 µM (inactive)
same,GI50,[28],> 100 µM (inactive)
same,GI50,[29],> 100 µM (inactive)
same,GI50,[30],39.1 µM (inactive)
same,GI50,[31],43.3 µM (inactive)
same,GI50,[32],25.5 µM (inactive)
same,GI50,[33],> 100 µM (inactive)
same,GI50,[34],18.7 µM (inactive)
same,GI50,[35],> 100 µM (inactive)
same,GI50,[36],79.8 µM (inactive)
same,GI50,[37],51.3 µM (inactive)
same,GI50,[38],52.4 µM (inactive)
same,GI50,[39],8.07 µM (inactive)
same,GI50,[40],> 100 µM (inactive)
same,GI50,[41],67.1 µM (inactive)
same,GI50,[42],> 100 µM (inactive)
same,GI50,[43],> 100 µM (inactive)
same,GI50,[44],47 µM (inactive)
same,GI50,[45],88.7 µM (inactive)
same,GI50,[46],> 100 µM (inactive)
same,GI50,[47],> 100 µM (inactive)
same,GI50,[48],7.66 µM (inactive)
same,GI50,[49],> 100 µM (inactive)
same,GI50,[50],10 µM (inactive)
same,GI50,[51],> 100 µM (inactive)
same,GI50,[52],29 µM (inactive)
same,GI50,[53],> 100 µM (inactive)
same,GI50,[54],21.4 µM (inactive)
same,GI50,[55],3.22 µM (inactive)
C[C@H](NC(=O)C(C)(Cc1ccc(O)cn1)NC(=O)c1ccccc1)c1ccccc1 (stereo not given in full),GI50,[1],> 100 µM (inactive)
same,GI50,[2],> 100 µM (inactive)
same,GI50,[3],> 100 µM (inactive)
same,GI50,[4],> 100 µM (inactive)
same,GI50,[5],> 100 µM (inactive)
same,GI50,[6],> 100 µM (inactive)
same,GI50,[7],> 100 µM (inactive)
same,GI50,[8],> 100 µM (inactive)
same,GI50,[9],> 100 µM (inactive)
same,GI50,[10],> 100 µM (inactive)
same,GI50,[11],> 100 µM (inactive)
same,GI50,[12],> 100 µM (inactive)
same,GI50,[13],> 100 µM
same,GI50,[14],> 100 µM (inactive)
same,GI50,[15],> 100 µM (inactive)
same,GI50,[16],> 100 µM (inactive)
same,GI50,[17],> 100 µM (inactive)
same,GI50,[18],> 100 µM (inactive)
same,GI50,[19],> 100 µM (inactive)
same,GI50,[20],> 100 µM (inactive)
same,GI50,[21],> 100 µM (inactive)
same,GI50,[22],> 100 µM (inactive)
same,GI50,[56],> 100 µM (inactive)
same,GI50,[23],> 100 µM (inactive)
same,GI50,[24],> 100 µM (inactive)
same,GI50,[25],> 100 µM (inactive)
same,GI50,[26],> 100 µM (inactive)
same,GI50,[27],> 100 µM (inactive)
same,GI50,[28],> 100 µM (inactive)
same,GI50,[57],> 100 µM (inactive)
same,GI50,[29],> 100 µM (inactive)
same,GI50,[31],> 100 µM (inactive)
same,GI50,[32],> 100 µM (inactive)
same,GI50,[33],> 100 µM (inactive)
same,GI50,[34],> 100 µM (inactive)
same,GI50,[35],> 100 µM (inactive)
same,GI50,[36],> 100 µM (inactive)
same,GI50,[37],> 100 µM (inactive)
same,GI50,[38],> 100 µM (inactive)
same,GI50,[58],> 100 µM (inactive)
same,GI50,[39],> 100 µM (inactive)
same,GI50,[40],> 100 µM (inactive)
same,GI50,[41],> 100 µM (inactive)
same,GI50,[42],> 100 µM (inactive)
same,GI50,[43],> 100 µM (inactive)
same,GI50,[44],> 100 µM (inactive)
same,GI50,[46],> 100 µM (inactive)
same,GI50,[47],> 100 µM (inactive)
same,GI50,[49],> 100 µM (inactive)
same,GI50,[50],> 100 µM (inactive)
same,GI50,[51],> 100 µM (inactive)
same,GI50,[52],> 100 µM (inactive)
same,GI50,[53],> 100 µM (inactive)
same,GI50,[54],> 100 µM (inactive)
same,GI50,[55],> 100 µM (inactive)
